Test systems include NCI/ADR-RES ovarian; MALME-3M melanoma; SK-MEL-2 melanoma; MCF7 breast; COLO 205 colon; SNB-75 CNS; UACC-257 melanoma; CCRF-CEM leukemia; DU-145 prostate; SF-295 CNS.
What all share (test): NCI tumour cell line growth inhibition, 48 h

Values joined by “and” are separate entries in the source; they are usually repeats but may differ in a detail not shown here. Equal entries are not always repeated.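 Briefly, cells in 96-well plates were exposed to five compound concentrations for 48 h, and endpoints were estimated by linear interpolation. GI50 marks 50% less growth. TGI is the concentration that stops growth completely.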 Some results are limits rather than exact numbers.

As for `O=S(=O)(NCCNc1cc(-c2cn(-c3ccccc3)nc2-c2cccc(O)c2)ccn1)c1ccc(Cl)cc1`, the GI50 in the assay with NCI/ADR-RES ovarian was 2.84 µM; with MALME-3M melanoma, 2.16 µM; in the assay on SK-MEL-2 melanoma, 2.4 µM; in the assay on MCF7 breast, 2.74 µM; with COLO 205 colon, 1.87 µM; with SNB-75 CNS, 3.28 µM. For the same molecule, the GI50 with UACC-257 melanoma was 3.39 µM; with CCRF-CEM leukemia it was 3.4 µM; in the assay with DU-145 prostate, 3.6 µM. The TGI was found to be 13.4 µM in the assay with NCI/ADR-RES ovarian; 5.47 µM in the assay with MALME-3M melanoma; 5.71 µM with SK-MEL-2 melanoma; 9.43 µM in the assay with MCF7 breast; 4 µM in the assay on COLO 205 colon; 20.4 µM in the assay on SNB-75 CNS. In addition, the TGI in the assay on UACC-257 melanoma stood at 10.3 µM; in the assay with CCRF-CEM leukemia it was 28.6 µM; in the assay with DU-145 prostate, 21.3 µM.
As to `O=C(O)c1cc(Cc2ccc(O)c(C(=O)O)c2)ccc1O` (tested in a mixture with another compound), the GI50 was 0.592 µM in the assay with SF-295 CNS; 6.48 µM in the assay with NCI/ADR-RES ovarian; 8.55 µM in the assay with MALME-3M melanoma; 2.53 µM in the assay with MCF7 breast; 1.57 µM in the assay on COLO 205 colon; 3.32 µM in the assay on SNB-75 CNS. Moreover, the GI50 was 3.34 µM with UACC-257 melanoma, 2.25 µM with CCRF-CEM leukemia and 12 µM in the assay with DU-145 prostate. For the same molecule, the TGI in the assay with SF-295 CNS was determined as 2.9 µM; with NCI/ADR-RES ovarian, 21 µM; in the assay on MALME-3M melanoma, 23.9 µM; with MCF7 breast, 12.5 µM; in the assay on COLO 205 colon, 3.41 µM; in the assay with SNB-75 CNS it was 22.4 µM. The TGI in the assay with UACC-257 melanoma is 7.77 µM; in the assay on CCRF-CEM leukemia, over 100 µM; in the assay with DU-145 prostate it was 27.8 µM.
On to `C=CCC(N[C@H](CO)c1ccccc1)c1cn(S(=O)(=O)c2ccc(C)cc2)c2ccccc12` (stereo partly specified), for which the GI50 is 8.19 µM in the assay with SF-295 CNS; 18.9 µM in the assay with NCI/ADR-RES ovarian; 32.2 µM with SK-MEL-2 melanoma; over 100 µM with MCF7 breast; 35.3 µM in the assay with COLO 205 colon; 66.2 µM with SNB-75 CNS. Moreover, the GI50 in the assay with UACC-257 melanoma was 10.7 µM; with CCRF-CEM leukemia, 22.6 µM; with DU-145 prostate it was 26.7 µM. For the same molecule, the TGI was 34.8 µM in the assay with SF-295 CNS; 46.2 µM with NCI/ADR-RES ovarian; over 100 µM in the assay on SK-MEL-2 melanoma; over 100 µM with MCF7 breast; over 100 µM with COLO 205 colon; over 100 µM with SNB-75 CNS. Further, the TGI in the assay with UACC-257 melanoma came to 26.7 µM; in the assay on CCRF-CEM leukemia it was 76.7 µM; in the assay on DU-145 prostate it was 67.2 µM.
Consider `Cc1cc(C)n(C(=O)c2nn(-c3ccc(Cl)cc3)cc2O)n1`, for which the GI50 is 1.81 µM in the assay on SF-295 CNS; 4.42 µM in the assay with NCI/ADR-RES ovarian; 4.59 µM with MALME-3M melanoma; 4.52 µM with MCF7 breast; 18.5 µM with COLO 205 colon; 3.52 µM in the assay with SNB-75 CNS. For the same molecule, the GI50 is 16.6 µM in the assay on UACC-257 melanoma, 3.66 µM with CCRF-CEM leukemia and 6.23 µM with DU-145 prostate. Also, the TGI was 6.73 µM with SF-295 CNS; over 100 µM in the assay with NCI/ADR-RES ovarian; 57.6 µM with MALME-3M melanoma; over 100 µM with MCF7 breast; 48.1 µM with COLO 205 colon; 73.1 µM in the assay with SNB-75 CNS. The results for the TGI with UACC-257 melanoma, in the assay on CCRF-CEM leukemia and with DU-145 prostate were over 100 µM, 54.5 µM and over 100 µM, respectively.
In the case of `CC(O)C(O)C(O)C(/C=N\Nc1ccccc1)=N/Nc1ccccc1` (stereo unspecified), the TGI with SF-295 CNS came to 25.7 µM; in the assay with NCI/ADR-RES ovarian, 40.2 µM; in the assay with MALME-3M melanoma, 43.5 µM; in the assay with SK-MEL-2 melanoma, 21.5 µM; with MCF7 breast it was 24.1 µM; in the assay with COLO 205 colon it was 27.4 µM. Moreover, the results for the TGI in the assay with SNB-75 CNS, with CCRF-CEM leukemia and with DU-145 prostate were 38.4 µM, 52.3 µM and 35.7 µM, respectively.
With `COc1cc(NCC2COc3c(ccc(OC)c3OC)C2=O)c([N+](=O)[O-])cc1OC` (stereo unspecified), the TGI with SF-295 CNS, with NCI/ADR-RES ovarian, with SK-MEL-2 melanoma, in the assay with MCF7 breast, with COLO 205 colon and in the assay on SNB-75 CNS was over 100 µM in each case. In addition, the TGI in the assay with UACC-257 melanoma, with CCRF-CEM leukemia and in the assay on DU-145 prostate was over 100 µM throughout.
As for `COc1ccc(/C=C/C(=O)c2cc3c(N)c(C(=O)Nc4ccccc4C)sc3nc2C)cc1`, the GI50 in the assay on SF-295 CNS was 0.497 µM; in the assay with NCI/ADR-RES ovarian it was 0.228 µM; in the assay on MALME-3M melanoma it was 0.248 µM; with SK-MEL-2 melanoma, 0.387 µM; in the assay on MCF7 breast, 0.24 µM; in the assay with SNB-75 CNS, 0.17 µM. Also, the GI50 in the assay with UACC-257 melanoma is 16.1 µM; in the assay with CCRF-CEM leukemia, 0.475 µM; in the assay with DU-145 prostate it was 0.431 µM. The TGI is over 50 µM with SF-295 CNS; 2 µM in the assay with NCI/ADR-RES ovarian; over 50 µM with MALME-3M melanoma; over 50 µM in the assay with SK-MEL-2 melanoma; over 50 µM in the assay with MCF7 breast; 1.85 µM with SNB-75 CNS. Moreover, the TGI with UACC-257 melanoma was over 50 µM; in the assay with CCRF-CEM leukemia it was over 50 µM; in the assay with DU-145 prostate it was over 23.4 µM.
`Cc1nc2cc(Nc3nc(Nc4ccc(F)cc4)nc(N4CCN(C)CC4)n3)ccc2n1Cc1ccccc1`: the GI50 in the assay on SF-295 CNS is 1.82 µM; with NCI/ADR-RES ovarian, 2.71 µM; in the assay on SK-MEL-2 melanoma, 1.97 µM; in the assay on MCF7 breast, 1.36 µM; with COLO 205 colon, 1.94 µM; with SNB-75 CNS, 1.4 µM. The GI50 in the assay on UACC-257 melanoma is 1.8 µM; in the assay with CCRF-CEM leukemia, 1.93 µM; in the assay on DU-145 prostate it was 1.75 µM. Also, the TGI with SF-295 CNS is 3.6 µM; with NCI/ADR-RES ovarian, 7.6 µM; in the assay on SK-MEL-2 melanoma, 3.58 µM; with MCF7 breast, 3.38 µM; in the assay on COLO 205 colon, 3.62 µM; in the assay on SNB-75 CNS it was 2.79 µM. The TGI in the assay on UACC-257 melanoma was determined as 3.3 µM; in the assay on CCRF-CEM leukemia, 5.47 µM; in the assay with DU-145 prostate it was 3.37 µM.
As to `Cc1cc(C)cc(Nc2ccc([N+](=O)[O-])c(NCCN3CCOCC3)n2)c1`, the GI50 in the assay with SF-295 CNS is 0.000446 µM; in the assay with NCI/ADR-RES ovarian it was 0.000646 µM; in the assay with MALME-3M melanoma, 16 µM; with MCF7 breast, 0.000327 µM; in the assay with COLO 205 colon it was 0.0023 µM; in the assay on UACC-257 melanoma, over 100 µM. In addition, in the assay with CCRF-CEM leukemia, the GI50 is 0.00392 µM and 0.0331 µM. Moreover, the TGI was 25.8 µM in the assay with SF-295 CNS; over 100 µM in the assay with MALME-3M melanoma; over 100 µM in the assay on SK-MEL-2 melanoma; over 100 µM with MCF7 breast; 0.00795 µM with COLO 205 colon; over 100 µM with UACC-257 melanoma. The TGI in the assay with CCRF-CEM leukemia and in the assay on DU-145 prostate was over 100 µM each time.

The values above are taken from PubChem BioAssay (NCI).
